# Experimental data: US12582599B2, “Methods for treatment of bladder cancer with gemcitabine” (TARIS Biomedical LLC, priority 2014, dated 2026)
# Tests used:
# [1] = Gemcitabine release systems vs intravesical instillation in hounds; type: in vivo, large mixed breed hounds; conditions: intravesical instillation mimicking standard clinical doses
# Procedure: Two gemcitabine release systems (devices as shown in FIGS. 1A-1B) designed to release therapeutic levels (4 mg/day and 40 mg/day) into the urine were screened. The devices used either laser-drilled orifices or punched orifices for release of the gemcitabine. The systems tested were compared to intravesical instillations which were designed to mimic the standard intravesical doses used clinically. The test animals were large mixed breed hounds, with N=3 for each group.
# In vivo, one system yielded very low urine and tissue concentrations but was well tolerated by the test animal. The other system produced target urine concentration levels but was poorly tolerated by the test animal. Urine profiles were also variable and the duration of drug release was unacceptably short.
# [2] = 14C gemcitabine bladder perfusion vs IV bolus, blood/urine/tissue content; type: in vivo, male Sprague Dawley rats
# Procedure: A study was conducted on male Sprague Dawley rats administering ^14C gemcitabine by intra-urinary bladder cannula, over a 6- or 24-hour continuous perfusion, or by a single IV bolus. The 6- and 24-hour continuous perfusions perfused 6.9 and 26.6 mg, respectively, of gemcitabine into the bladder. The single IV bolus included 5.0 mg of gemcitabine. Blood (FIG. 8), urine, and tissue samples (e.g., bladder, prostate) (FIGS. 7 and 9) were collected and analyzed for gemcitabine content. The results are illustrated in FIGS. 7-9. […] The gemcitabine levels observed for each of the bladder epithelium, lamina propria, muscularis, and adventitia are shown in FIG. 14, which also illustrates a target effective range for the gemcitabine tissue concentration.
# [3] = minipig, in vivo
# Procedure: Varying concentrations of gemcitabine were perfused into pigs for 7 days, N=5 (2 males and 3 females per treatment group). The perfusion animals were dosed at concentrations selected to bracket the target doses for bladder cancer in humans. For comparison, a gemcitabine releasing device (as shown in FIGS. 1A-1B) with large bore end caps (restraining plugs with a large aperture therethrough for drug release) with an intermediate in vitro release rate was deployed in a separate group of animals.
structure (smiles),measurement,setting,value
"Nc1ccn([C@@H]2O[C@H](CO)[C@@H](O)C2(F)F)c(=O)n1 [gemcitabine, 2′,2′-difluorodeoxycytidine]",urothelial lesions,[1],significant urothelial lesions
same,gemcitabine levels in bladder tissue,"[2]; 6- or 24-hour continuous bladder perfusion, sustained urine concentrations",at or exceed therapeutic concentrations
same,concentration of gemcitabine in the bladder,"[2]; 24 hours after a clinically relevant IV dose, compared with perfusion",significantly lower concentration
same,plasma/systemic exposure,[2]; continuous delivery by intravesical administration,without significant plasma/systemic exposure
same,tolerability,[3],tolerated gemcitabine well
